The source of these data is patent US12516051B1, “Small molecule degraders and fluorescent probes of PXR” (St. Jude Children's Research Hospital, Inc., priority 2024, dated 2026).

Each structure is given as a SMILES string. Where two headings read alike, the source gives them in different places.

This data set relates to SNU-C4 HiBiT-PXR KI cells. Description: Cytotoxicity, CellTiter-Glo Luminescent Cell Viability Assay. The format is cell-based. As for the experimental part:
An Echo 655T Acoustic Liquid Handler was used to dispense 75 nL/well of DMSO or PROTAC dilution into white tissue culture-treated 384-well plates. For 24 h cytotoxicity, 25 μL assay media containing 1×10^4 cells was added to each well to match the conditions for the degradation assays. For 72 h cytotoxicity, 25 μL RPMI with 10% FBS containing 2.5×10^3 cells was added to each well to match normal growth conditions. […] After 24 h or 72 h, the CellTiter-Glo Luminescent Cell Viability Assay (Promega, cat. #G7572) and an EnVision microplate reader were used to assess cytotoxicity. DMSO wells with cells served as positive controls, and wells without cells served as negative controls. The percent cell viability for each well was calculated using equation 5,

Setting [1] is: read-out: 24 h CC50, Table 3, 24 h treatment.
The mark [2] stands for this setting: read-out: 72 h CC50, Table 3, 72 h treatment.
[3] abbreviates: read-out: 24 h CC50, Table 4, 24 h treatment.
[4] abbreviates: read-out: 72 h CC50, Table 4, 72 h treatment.

As to `COc1cc(OCCCCCCOCCOCCOCCCCCC(=O)N[C@H](C(=O)N2C[C@H](O)C[C@H]2C(=O)NCc2ccc(-c3scnc3C)cc2)C(C)(C)C)c(C)cc1-n1nnc(S(=O)(=O)c2ccc(C(C)(C)C)cc2)c1C` [Compound 33, (2S,4R)-1-((S)-2-(tert-Butyl)-22-(4-(4-((4-(tert-butyl)phenyl)sulfonyl)-5-methyl-1H-1,2,3-triazol-1-yl)-5-methoxy-2-methylphenoxy)-4-oxo-10,13,16-trioxa-3-azadocosanoyl)-4-hydroxy-N-(4-(4-methylthiazol-5-yl)benzyl)pyrrolidine-2-carboxamide], the CC50 under setting [1] is > 30 µM and the CC50 under setting [2] was > 30 µM.

As to `COc1cc(OCCCCCCOCCOCCOCCOCCOCCOCC(=O)N[C@H](C(=O)N2C[C@H](O)C[C@H]2C(=O)NCc2ccc(-c3scnc3C)cc2)C(C)(C)C)c(C)cc1-n1nnc(S(=O)(=O)c2ccc(C(C)(C)C)cc2)c1C` [Compound 34, (2S,4R)-1-((S)-2-(tert-Butyl)-27-(4-(4-((4-(tert-butyl)phenyl)sulfonyl)-5-methyl-1H-1,2,3-triazol-1-yl)-5-methoxy-2-methylphenoxy)-4-oxo-6,9,12,15,18,21-hexaoxa-3-azaheptacosanoyl)-4-hydroxy-N-(4-(4-methylthiazol-5-yl)benzyl)pyrrolidine-2-carboxamide], the CC50 runs as follows: under setting [1], > 30 µM; under setting [2], > 30 µM.

Consider `CCCCOc1ccc(C(C)(C)C)cc1NC(=O)c1nnn(-c2cc(C)c(OCCCCCCOCCOCC(=O)N[C@H](C(=O)N3C[C@H](O)C[C@H]3C(=O)NCc3ccc(-c4scnc4C)cc3)C(C)(C)C)cc2OC)c1C` [Compound 35, N-(2-Butoxy-5-(tert-butyl)phenyl)-1-(4-((6-(2-(2-(((S)-1-((2S,4R)-4-hydroxy-2-((4-(4-methylthiazol-5-yl)benzyl)carbamoyl)pyrrolidin-1-yl)-3,3-dimethyl-1-oxobutan-2-yl)amino)-2-oxoethoxy)ethoxy)hexyl)oxy)-2-methoxy-5-methylphenyl)-5-methyl-1H-1,2,3-triazole-4-carboxamide], for which the CC50 under setting [3] was > 30 µM and the CC50 under setting [4] is > 30 µM.

For `CCC[C@H](CC)Oc1ccc(C(C)(C)C)cc1NC(=O)c1nnn(-c2cc(C)c(OCCCCCCOCCOCC(=O)N[C@H](C(=O)N3C[C@H](O)C[C@H]3C(=O)NCc3ccc(-c4scnc4C)cc3)C(C)(C)C)cc2OC)c1C` [Compound 36], the CC50 under setting [3] was > 30 µM and the CC50 under setting [4] is > 30 µM.

Take `CCC[C@H](CC)Oc1ccc(C(C)(C)C)cc1NC(=O)c1nnn(-c2cc(OC)c(OCCCCCCOCCOCC(=O)N[C@H](C(=O)N3C[C@H](O)C[C@H]3C(=O)NCc3ccc(-c4scnc4C)cc3)C(C)(C)C)cc2OC)c1C` [Compound 37, N-(5-(TERT-BUTYL)-2-(((S)-HEXAN-3-YL)OXY)PHENYL)-1-(4-((6-(2-(2-(((S)-1-((2S,4R)-4-HYDROXY-2-((4-(4 METHYLTHIAZOL-5-YL)BENZYL)CARBAMOYL)PYRROLIDIN-1-YL)-3,3-DIMETHYL-1-OXOBUTAN-2-YL)AMINO)-2 OXOETHOXY)ETHOXY)HEXYL)OXY)-2,5-DIMETHOXYPHENYL)-5-METHYL-1H-1,2,3-TRIAZOLE-4-CARBOXAMIDE]: the half-maximal cytotoxic concentration (CC50) under setting [3] is > 30 µM and the CC50 under setting [4] was > 30 µM.

As to `CCC[C@H](CC)Oc1ccc(C(=O)OC)cc1NC(=O)c1nnn(-c2cc(OC)c(OCCCCCCOCCOCC(=O)N[C@H](C(=O)N3C[C@H](O)C[C@H]3C(=O)NCc3ccc(-c4scnc4C)cc3)C(C)(C)C)cc2OC)c1C` [Compound 38, METHYL 4-(((S)-HEXAN-3-YL)OXY)-3-(1-(4-((6-(2-(2-(((S)-1-((2S,4R)-4-HYDROXY-2-((4-(4-METHYLTHIAZOL-5-YL)BENZYL)CARBAMOYL)PYRROLIDIN-1-YL)-3,3-DIMETHYL-1-OXOBUTAN-2-YL)AMINO)-2-OXOETHOXY)ETHOXY)HEXYL)OXY)-2,5-DIMETHOXYPHENYL)-5-METHYL-1H-1,2,3-TRIAZOLE-4-CARBOXAMIDO)BENZOATE], the CC50 is > 30 µM under setting [3] and > 30 µM under setting [4].
